This is an account of results in US11878003B2, “Composition comprising organoselenium compound for treatment of skeletal muscle atrophy” (Gwangju Institute of Science and Technology, priority 2021, dated 2024).

Common to all, as to format: cell-based, mouse
Data set [1] deals with C2C12 myoblasts. The data set can be described thus: MTT assay, myoblast viability. The settings on record: for concentration at which cytotoxicity was not observed: MTT. Here is the method:
C2C12 mouse skeletal muscle progenitor cells (myoblasts) were grown in a growth medium including Dulbecco's Modified Eagle's Medium (DMEM) supplemented with 10% fetal bovine serum (FBS), 50 units/mL if penicillin, and […] of streptomycin (PenStrep).
(§1) Cell proliferation was evaluated through MTT (3-(4,5-dimethylthiazol-2-yl)-2,5-diphenyltetrazolium bromide) assay as described above. Myoblasts were seeded 3 times into 96-well plates at a density of 2×10^3 cells per well. A compound to be tested was added, followed by 48 hours of incubation, the medium was changed to an MTT solution (0.5 mg/mL, final concentration), and the plate was incubated in an incubator at 37° C., 5%, CO2 conditions. After 60 minutes of incubation, 50 μL of DMSO was added. Optical density in each well was measured at 570 nm using a microplate reader (VersaMax, Molecular Devices, USA). For myotube analysis, myoblasts were differentiated for […], the medium was supplemented with the compound of interest, 48 hours of incubation was additionally performed, and the cultures were assayed.

For data set [2], the system named is C2C12 myotubes. The data set can be described thus: MTT assay and microscopy, myotube viability. Here is the method:
(§2) Then, the myoblasts were treated with a differentiation medium (DMEM supplemented with 2% horse serum and PenStrep) for 72 hours so that the myoblasts were induced to differentiate into myotubes.
as §1
In general terms: Tetrazolium assays rely on reduction of a dye to a coloured formazan, in cell work by metabolically active cells.

Data set [3] relates to C2C12 myotubes. Nature of the data set: Dexamethasone-induced myotube atrophy, H&E morphology. Conditions: co-treatment with 10 μM dexamethasone; for average myotube diameter: 24 hours. Here is the method:
(§3) C2C12 myoblasts were seeded onto 6-well plates in a growth medium (GM). After reaching confluence, the cultures were treated with DM for 72 hours, and myotube atrophy was induced with DM containing 10 μM dexamethasone for 24 hours in the presence or absence of the drug of interest. Myotubes were visualized using hematoxylin and eosin staining according to a previously published protocol, and imaged with an optical microscope (Olympus CKX41, Japan). A myotube distribution was calculated by dividing the number of myotubes in each group by the total number of myotubes per image.
(§4) To evaluate myotube formation and atrophy, five microscopic fields of H&E-stained or MitoTracker Red CMX-Ros-stained cultures were randomly captured, and multinuclear myotube formation and diameters were calculated. Myotubes were designated as multinucleated cells containing three or more nuclei, and the diameters of myotubes were calculated using ImageJ 1.48 software (National Institutes of Health, Bethesda, MD, USA).

Data set [4] has as its system Atrogin-1, MuRF-1, FoxO3a expression. Nature of the data set: qPCR of atrophy genes in dexamethasone-treated myotubes. Here is the method:
as §3
(§5) The transcription level of the gene was measured using a StepOnePlus Real Time PCR System (manufactured by Applied Biosystems, UK). cDNA was reverse transcribed from total RNA using an AccuPower RT PreMix (manufactured by Bioneer, USA). Real-time PCR was performed by modifying the manufacturer's instructions as follows.
(§6) PCR was performed three times using a total of 20 μL of 2×Power SYBR Green PCR Master Mix containing 200 nM of specific primers and 1 μL of cDNA. 10 minutes of incubation was performed at 95° C. prior to PCR amplification. The amplification consisted of 40 cycles of denaturation (for 15 seconds at 95° C.), annealing (for 1 minute at 60° C.), and extension (for 20 seconds at 72° C.). Extension and fluorescence detection were performed at 72° C. after each cycle. After the final cycle, melting point analysis was performed using continuous fluorescence detection on samples at a temperature in a range of 60° C. to 95° C. Specific cDNA samples were included in each run and used as a reference for comparison between runs. Expression levels of GAPDH were used for normalization and expression levels of all other genes were calculated.
In general terms: Real-time PCR tracks product formation cycle by cycle.

Data set [5] deals with C2C12 myoblasts. The data set can be described thus: Myogenesis, myotube formation and morphology without dexamethasone. Conditions: for myotube formation and overall myotube diameters: 10 μM ebselen, 5 mM LiCl or 1.25 μM BIO, 24 hours. Here is the method:
as §2
In differentiation cultures, myotubes were visualized by treatment with 50 nM MitoTracker Red CMX-Ros and […] DAPI in a differentiation medium at 37° C. for 30 minutes and imaged using a fluorescence microscope (Leica DMI3000B, Germany) as described above.
as §4

In data set [6] the test system is Pax7, Myf5, MyoG, Myh2 expression. The data set can be described thus: qPCR of myogenic markers in differentiating myoblasts. Conditions: differentiation medium, 100 mM myo-inositol. The method, then: as §5, §6
Data set [7] deals with C2C12 myotubes. The data set can be described thus: SUnSET assay of protein synthesis. The settings on record: alone or with dexamethasone. The method, then:
Surface sensing translation (SUnSET) assay was performed as described above. Briefly, 1 μg/mL puromycin was added to the culture and the harvest was lysed after 10 minutes. For immunoblotting, the myotube extract was treated with anti-puromycin 12D10 antibody (MABE343; Millipore).

Setting [8] is: 100 mM myo-inositol, no dexamethasone.

Turning to `[Cl-].[Li+]` [LiCl], the IC50 (commonly the concentration needed to halve the response being measured) with C2C12 myoblasts [1] (48 hours, read-out: IC50, MTT assessment) turned out to be 19.9 mM. Further, in the data set with C2C12 myoblasts [1], the “concentration at which cytotoxicity was not observed” value is on record as “up to 5 mM”. Besides, the “number of observable myotubes” value in the data set on C2C12 myotubes [2] (microscopic observation, 50 mM LiCl) is listed as “reduced”. In the data set with C2C12 myotubes [3], the “proportion of larger diameter myotubes” value is recorded as “larger diameter myotubes were observed” and the average myotube diameter entry was “increased”. Moreover, the FoxO3a expression result in data set [4] (10 μM dexamethasone) was “inhibited the up-regulation”. The “myotube formation and overall myotube diameters” value with C2C12 myoblasts [5] was “enhanced myotube formation and increased overall myotube diameters”.

On to `O=C1c2ccccc2[Se](=O)N1c1ccccc1` (centres unmarked) [ebselen oxide], for which the “Atrogin-1 and FoxO3a expression” value in data set [4] (10 μM dexamethasone 24 hours) was “inhibited the expression”.

For `O[C@H]1[C@H](O)[C@@H](O)[C@H](O)[C@@H](O)[C@H]1O` [myo-inositol], the cytotoxicity entry in the data set with C2C12 myotubes [2] (myotubes, 500 mM, 48 hours) is given as “significant cytotoxicity”. Further, in the data set with C2C12 myotubes [2] (myotubes, MTT, 48 hours), the “concentration without cytotoxicity / effect on cell viability” value is listed as “below 250 mM”. For the same compound, in the data set on C2C12 myotubes [3], the myotube length result is given as “significantly reduced” and the average myotube diameter result is “significantly reduced”. Also, the “expression of atrogin-1, MuRF-1 and FoxO3a” value in data set [4] (10 μM dexamethasone, 100 mM myo-inositol) is reported as “further increased”. Further, in the data set on C2C12 myoblasts [5] (setting [8]), the average myotube diameter entry is “decreased” and the average myotube length result was “decreased”. Besides, the myotube morphology entry in the data set on C2C12 myoblasts [5] (100 mM, 48 hours, H&E) was “induced shortened and narrower myotubes”. Besides, the “number of immature myotubes” value with C2C12 myoblasts [5] (DM with 100 mM myo-inositol, 48 hours) is listed as “reduced”. The “proportion of larger diameter myotubes” value in the data set on C2C12 myoblasts [5] (no dexamethasone) was “reduction”. Besides, in data set [6], the “expression of MyoG and Myh2” value is “reduced”; the “expression of Pax7 and Myf5” value is “increased”. The protein synthesis result with C2C12 myotubes [7] is “decreased”.

Turning to `CC(Oc1ccc(O)cc1)(P(=O)(O)O)P(=O)(O)O` [L-690,330, [1-(4-hydroxyphenoxy)-1-phosphonoethyl]phosphonic acid], in the data set with C2C12 myoblasts [1], the “concentration at which cytotoxicity was not observed” value is listed as “up to 50 μM”. In the data set with C2C12 myotubes [3], the “proportion of larger diameter myotubes” value was “larger diameter myotubes were observed” and the average myotube diameter entry is recorded as “increased”. Moreover, the FoxO3a expression result in data set [4] (10 μM dexamethasone) was “inhibited the up-regulation”.

With 6-Bromoindirubin-3-oxime [BIO], the “myotube formation and overall myotube diameters” value with C2C12 myoblasts [5] is reported as “inhibited myotube formation”.
